Columns and labels:
[1] = tested on: human dermal fibroblast cells (HDF); assay: Lactate Dehydrogenase (LDH) release assay; assay type: cell-based; settings: concentration of up to 50 μg/mL, 6 h
Procedure: LDH is released from cells into the medium when cell lysis occurs. The amount of LDH released to the medium was measured using the Cyto Tox 96® nonradioactive assay (Promega, Madison, Wis., USA) following the manufacturer's instructions. The HDF cells were cultured in a 96-well microplate for 24 h, before the old medium was replaced with DMEM with including either Se NPs, Se NP-ε-PL or pure ε-PL. Pure DMEM was used as negative control. The microplate was put back into the incubator for 6 h. For the maximum LDH release control, HDF cells were lysed using 1× lysis solution for 45 minutes before adding Cyto Tox 96 reagent. Cyto Tox 96 reagent was then added to the wells and the microplate was incubated for a further 30 minutes. The reaction was then stopped by adding stop solution. A microplate reader (M200 PRO, Tecan) was utilized to test absorbance at 490 nm. The cytotoxicity (Y) was calculated using the following formula: […]
OD3 represents the mean absorbance of experimental groups, and OD4 represents the mean absorbance of the maximum LDH release control group. All absorbance values are after subtraction of the culture medium background values.

[2] = tested on: multidrug-resistant K. pneumoniae (MDR); assay: Bacterial growth inhibition test / MIC calculation; assay type: cell-based, Klebsiella pneumoniae; settings: MHB, 37° C., growth curves, linear regression, mean ± s.d.
Source text: The bacterial strains methicillin-sensitive Staphylococcus aureus (S. aureus) ATCC 29213, methicillin-resistant Staphylococcus aureus (MRSA) ATCC 43300, Enterococcus faecalis (E. faecalis) ATCC 29212, Escherichia coli (E. coli) ATCC 25922, Acinetobacter baumannii (A. baumannii) 2208 ATCC19606, Pseudomonas aeruginosa (P. aeruginosa) strain PAO1-LAC ATCC 47085, Klebsiella pneumoniae (K. pneumoniae) ATCC 13883 and multidrug-resistant K. pneumoniae (MDR), were obtained from the culture collection of the Oral Health Cooperative Research Centre, The Melbourne Dental School, University of Melbourne, Australia. Bacteria were cultured in Mueller Hinton Broth (MHB) at 37° C. […] The plate was put into an iEMS microplate reader (Pathtech Pty Ltd, Melbourne, Australia) at a temperature of 37° C. to monitor bacterial growth by measuring the absorbance at wavelength of 630 nm for 24 h. Background absorbance values due to the Se NP solutions were subtracted from the measured absorbance values.
The absorbance values from bacteria growth curves at the time when the stationary phase starts (tsps) were taken and calculated as a percentage of the untreated control (Z=OD5/OD6×100%, where OD5 represents absorbance at tsps of experimental groups and OD6 represents the absorbance at tsps of the negative control group; all absorbance values had the culture medium background values subtracted). […]

[3] = tested on: human dermal fibroblast cells (HDF); assay: Cell Counting Kit-8 (CCK-8) cytotoxicity assay; assay type: cell-based; settings: all tested concentrations (1-50 μg/mL), 24 h
Procedure: Two methods were adopted to test the cytotoxicity of Se NP-ε-PL, namely the Cell Counting Kit-8 (CCK-8) assay and Lactate Dehydrogenase (LDH) assay.
Cytotoxicity of Se NPs, Se NP-ε-PL and pure ε-PL was tested using human dermal fibroblast cells (HDF). HDF were cultured in Dulbecco's modified Eagle's medium (DMEM) with 10% foetal bovine serum (FBS), 100 U·mL^−1 penicillin and 100 μg·mL^−1 streptomycin at 37° C. in a humidified atmosphere of 5% CO2. For the CCK-8 tests, filter sterilised Se NPs, Se NP-ε-PL and pure ε-PL in PBS suspensions were diluted in PBS to concentrations of 20, 50, 100, 200, 500 and 1000 μg/mL and 5% (v/v) of these diluted solutions were added to DMEM to give final concentrations of Se NPs of 1, 2.5, 5, 10, 25 and 50 μg/mL The control groups involved DMEM as the negative control and DMEM with 10% dimethyl sulfoxide (DMSO) as the positive control, according to ISO 10993-12 standard. […] 100 μL medium from each well was then transferred to new 96-well plates and the absorbance of each well was tested using a microplate reader (M200 PRO, Tecan) at a wavelength of 450 nm. The cell viability (X) of each experimental group was calculated based on 5 samples according the following formula: […]
where OD1 represents the mean absorbance of experimental groups and the positive control group and OD2 represents the mean absorbance of the negative control group.

[4] = tested on: Klebsiella pneumoniae (K. pneumoniae) ATCC 13883; assay: Bacterial growth inhibition test / MIC calculation; assay type: cell-based; settings: MHB, 37° C., growth curves, linear regression, mean ± s.d.
Source text: (§1) The bacterial strains methicillin-sensitive Staphylococcus aureus (S. aureus) ATCC 29213, methicillin-resistant Staphylococcus aureus (MRSA) ATCC 43300, Enterococcus faecalis (E. faecalis) ATCC 29212, Escherichia coli (E. coli) ATCC 25922, Acinetobacter baumannii (A. baumannii) 2208 ATCC19606, Pseudomonas aeruginosa (P. aeruginosa) strain PAO1-LAC ATCC 47085, Klebsiella pneumoniae (K. pneumoniae) ATCC 13883 and multidrug-resistant K. pneumoniae (MDR), were obtained from the culture collection of the Oral Health Cooperative Research Centre, The Melbourne Dental School, University of Melbourne, Australia. Bacteria were cultured in Mueller Hinton Broth (MHB) at 37° C. 50 μL of suspensions with the desired concentrations of Se NPs, Se NP-ε-PL or pure ε-PL in PBS solution was added to each well of 96-well microplates, then 50 μL MHB with 2.5×10^6 bacteria/mL were added into each well. The plate was put into an iEMS microplate reader (Pathtech Pty Ltd, Melbourne, Australia) at a temperature of 37° C. to monitor bacterial growth by measuring the absorbance at wavelength of 630 nm for 24 h. Background absorbance values due to the Se NP solutions were subtracted from the measured absorbance values.
(§2) The absorbance values from bacteria growth curves at the time when the stationary phase starts (tsps) were taken and calculated as a percentage of the untreated control (Z=OD5/OD6×100%, where OD5 represents absorbance at tsps of experimental groups and OD6 represents the absorbance at tsps of the negative control group; all absorbance values had the culture medium background values subtracted). Concentration-inhibition curves were plotted with the percentages of absorbance, and linear regression analysis was adopted to determine the MIC at which Z becomes zero.

[5] = tested on: methicillin-sensitive Staphylococcus aureus (S. aureus) ATCC 29213; assay: Bacterial growth inhibition test / MIC calculation; assay type: cell-based; settings: MHB, 37° C., growth curves, linear regression, mean ± s.d.
Source text: as §1, §2

[6] = tested on: Pseudomonas aeruginosa (P. aeruginosa) strain PAO1-LAC ATCC 47085; assay: Bacterial growth inhibition test / MIC calculation; assay type: cell-based; settings: MHB, 37° C., growth curves, linear regression, mean ± s.d.
Source text: as §1, §2

[7] = tested on: Acinetobacter baumannii (A. baumannii) 2208 ATCC19606; assay: Bacterial growth inhibition test / MIC calculation; assay type: cell-based; settings: MHB, 37° C., growth curves, linear regression, mean ± s.d.
Source text: as §1, §2

[8] = tested on: methicillin-resistant Staphylococcus aureus (MRSA) ATCC 43300; assay: Bacterial growth inhibition test / MIC calculation; assay type: cell-based; settings: MHB, 37° C., growth curves, linear regression, mean ± s.d.
Source text: as §1, §2

[9] = tested on: Escherichia coli (E. coli) ATCC 25922; assay: Bacterial growth inhibition test / MIC calculation; assay type: cell-based; settings: MHB, 37° C., growth curves, linear regression, mean ± s.d.
Source text: as §1, §2

[10] = tested on: Enterococcus faecalis (E. faecalis) ATCC 29212; assay: Bacterial growth inhibition test / MIC calculation; assay type: cell-based; settings: MHB, 37° C., growth curves, linear regression, mean ± s.d.
Source text: as §1, §2

ε-poly-L-lysine [ε-PL]
LDH released from HDF cells compared with untreated control [1]: no significant difference to the untreated control
MIC [2]: 26.5 ± 0.5 µg/mL
toxicity to HDF cells (cell viability, CCK-8) [3]: no significant toxicity
MIC [4]: 12.0 ± 0.6 µg/mL
MIC [5]: 7.5 ± 1.0 µg/mL
MIC [6]: 9.5 ± 3.6 µg/mL
MIC [7]: 21.6 ± 7.0 µg/mL
MIC [8]: 11.6 ± 2.0 µg/mL
MIC [9]: 13.2 ± 0.5 µg/mL
MIC [10]: 27.1 ± 2.2 µg/mL
